PMC9268516 (Molecules, 2022)

Experiments:
in vitro = conditions: Rhesus monkey
H1N1 = conditions: cited from earlier work
chemokine co-receptor 5 = conditions: cited from earlier work
RAW 264.7 cells = conditions: cited from earlier work
influenza A/WSN/33 virus = conditions: cited from earlier work

Row | SMILES | IC50 (in vitro) | melting point | other results
1 | C=CCn1c(=O)/c(=C/C(C)C)[nH]c(=O)/c1=C/c1ccccc1 [Compound 13b, (3Z,6Z)-4-Allyl-3-benzylidene-6-(2-methylpropylidene)-2,5-diketopiperazine] | > 128 µg/mL |  | 
2 | CC(C)/C=c1\[nH]c(=O)/c(=C/c2ccc(O)cc2)[nH]c1=O [(3Z,6Z)-3-(4-hydroxybenzylidene)-6-isobutylidenepiperazine-2,5-dione, reference compound] |  |  | IC50 (H1N1): 6.8 ± 1.5 µM
3 | CC(C)/C=c1\[nH]c(=O)/c(=C/c2ccccc2)[nH]c1=O [Compound 13f, (3Z,6Z)-3-Benzylidene-6-(2-methylpropylidene)-2,5-diketopiperazine] |  | 243 to 246 °C | IC50 (H1N1): 41.5 ± 4.5 µM
4 | CC(C)C=c1c(=O)[nH]c(=Cc2ccccc2)c(=O)n1CCN1CCCC1 [Compound 14c, (3Z,6E)-3-Benzylidene-6-(2-methylpropylidene)-1-(1-ethylpyrrolidine)-2,5-diketopiperazine] | > 128 µg/mL | 158 to 162 °C | 
5 | CC(C)=CCn1c(=O)/c(=C/C(C)C)[nH]c(=O)/c1=C/c1ccccc1 [Compound 13c, (3Z,6Z)-3-Benzylidene-6-(2-methylpropylidene)-4-(3-methylbut-2-en-1-yl)-2,5-diketopiperazine] | > 128 µg/mL | 175 to 178 °C | 
6 | CCCCN1C(=O)[C@@H]([C@H](O)C2CCCCC2)NC(=O)C12CCN(Cc1ccc(Oc3ccc(C(=O)O)cc3)cc1)CC2 [Aplaviroc] |  |  | binding affinity to chemokine co-receptor 5 (chemokine co-receptor 5): high binding affinity
7 | CC(C)/C=c1\c(=O)n(O)/c(=C/c2ccccc2)c(=O)n1C [LS-C, reference compound] | > 128 µg/mL |  | anti-inflammatory effect (RAW 264.7 cells): anti-inflammatory effect
8 | C=CC(C)(C)c1[nH]c2ccccc2c1/C=c1\[nH]c(=O)c(=C)[nH]c1=O [Neoechinulin B] |  |  | inhibitory rate (influenza A/WSN/33 virus): 70.48%
9 | CC(C)/C=c1/c(=O)[nH]/c(=C\c2ccccc2)c(=O)n1C [Compound 13d, (3Z,6Z)-3-Benzylidene-6-(2-methylpropylidene)-1-methyl-2,5-diketopiperazine] | > 128 µg/mL |  | 
10 | CC(C)/C=c1\c(=O)[nH]/c(=C/c2ccccc2)c(=O)n1C [LS-D, reference compound] | > 128 µg/mL |  | anti-inflammatory effect (RAW 264.7 cells): anti-inflammatory effect
11 | C=CCn1c(=O)/c(=C/c2ccccc2)[nH]c(=O)/c1=C/C(C)C [Compound 13e, (3Z,6Z)-1-Allyl-3-benzylidene-6-(2-methylpropylidene)-2,5-diketopiperazine] |  | 115 to 119 °C | 
